The target in test [1] is T1, CFTR (Homo sapiens, UniProt P13569). Nature of the test: Membrane potential dye, Enteroid Assay B. Format: cell-based. Conditions: for Ent. B Max Activity: chloride transport as % of triple combination control (Enteroid Assay B); for EC50: read-out: Ent. B EC50. Put shortly:
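Fluorescence read over 15 min after chloride-free stimulation (10 μM forskolin, 100 μM IBMX, 300 nM Compound III) gave chloride transport, reported as % activity versus a triple-corrector/potentiator control. Beforehand, human enteroid cells had 18-24 h compound exposure at 37° C and 25 min methyl oxonol dye loading at room temperature.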

Test [2] has as its target T1, CFTR. The test can be described thus: Membrane potential dye, Enteroid Assay A. To be noted: for Ent. A Max Activity: chloride transport as % of triple combination control (Enteroid Assay A); for EC50: human enteroid cells, 18-24 hours, acute 10 μM forskolin and 300 nM ivacaftor, read-out: Ent. A EC50. It is filed as cell-based. The essentials:
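% Activity: chloride transport relative to a 3 μM/3 μM corrector pair plus 300 nM acute potentiator control. Primary human enteroid cells, 18-24 h compound exposure at 37 °C; membrane potential dye (methyl oxonol) fluorescence over 15 min after forskolin (10 μM)/IBMX (100 μM)/Compound III (300 nM) stimulation in chloride-free buffer.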

[3] abbreviates: Table 7, human enteroid cells, 18-24 hours, acute 10 μM forskolin and 300 nM ivacaftor.
Setting [4] is: Table 8, human enteroid cells, 18-24 hours, acute 10 μM forskolin and 300 nM ivacaftor.

The structures appear in SMILES notation.

T1 sequence (P13569 with tags, fused parts or gaps DEL508-508): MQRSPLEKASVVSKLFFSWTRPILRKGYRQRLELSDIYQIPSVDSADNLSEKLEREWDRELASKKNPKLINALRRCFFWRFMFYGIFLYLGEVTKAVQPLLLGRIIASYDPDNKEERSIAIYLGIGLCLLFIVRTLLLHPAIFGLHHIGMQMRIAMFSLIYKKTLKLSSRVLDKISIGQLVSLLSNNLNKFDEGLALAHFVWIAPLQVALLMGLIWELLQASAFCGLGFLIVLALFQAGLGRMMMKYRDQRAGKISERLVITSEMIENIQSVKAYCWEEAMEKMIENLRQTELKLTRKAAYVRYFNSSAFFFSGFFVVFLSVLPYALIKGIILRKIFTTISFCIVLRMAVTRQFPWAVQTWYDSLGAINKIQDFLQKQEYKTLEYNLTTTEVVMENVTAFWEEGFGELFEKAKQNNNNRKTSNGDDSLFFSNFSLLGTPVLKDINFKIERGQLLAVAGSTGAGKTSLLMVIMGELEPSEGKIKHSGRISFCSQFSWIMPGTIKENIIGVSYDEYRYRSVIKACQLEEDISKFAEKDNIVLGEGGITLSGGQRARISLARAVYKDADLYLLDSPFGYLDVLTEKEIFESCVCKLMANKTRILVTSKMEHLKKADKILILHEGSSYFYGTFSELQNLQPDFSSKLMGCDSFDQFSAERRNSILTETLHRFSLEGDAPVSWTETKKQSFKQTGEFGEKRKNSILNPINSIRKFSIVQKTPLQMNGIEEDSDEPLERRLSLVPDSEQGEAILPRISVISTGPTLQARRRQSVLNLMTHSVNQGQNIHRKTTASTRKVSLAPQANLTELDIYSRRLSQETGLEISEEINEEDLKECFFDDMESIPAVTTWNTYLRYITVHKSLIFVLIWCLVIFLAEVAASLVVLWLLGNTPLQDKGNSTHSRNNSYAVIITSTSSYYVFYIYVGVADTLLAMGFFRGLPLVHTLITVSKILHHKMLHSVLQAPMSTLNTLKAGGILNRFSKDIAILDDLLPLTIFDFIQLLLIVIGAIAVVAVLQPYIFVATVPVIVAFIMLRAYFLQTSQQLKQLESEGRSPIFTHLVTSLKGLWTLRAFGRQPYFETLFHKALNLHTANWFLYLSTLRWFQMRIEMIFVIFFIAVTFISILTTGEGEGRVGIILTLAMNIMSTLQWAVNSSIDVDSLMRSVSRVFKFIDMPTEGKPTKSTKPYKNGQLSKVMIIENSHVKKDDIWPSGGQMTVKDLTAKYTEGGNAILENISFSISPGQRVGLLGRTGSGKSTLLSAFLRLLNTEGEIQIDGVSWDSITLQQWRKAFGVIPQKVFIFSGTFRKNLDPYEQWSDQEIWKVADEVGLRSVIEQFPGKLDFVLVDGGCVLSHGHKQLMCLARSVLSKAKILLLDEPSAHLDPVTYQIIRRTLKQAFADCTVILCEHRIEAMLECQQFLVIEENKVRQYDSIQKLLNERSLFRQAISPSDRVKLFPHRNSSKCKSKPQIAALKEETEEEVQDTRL

What is called EC50 is the concentration at which the effect is half-maximal. As to `Cc1cccc(C)c1-c1cc2nc(n1)NS(=O)(=O)c1cccc(c1)C(=O)N(Cc1ccncc1)[C@H](CC(C)C)CO2` [Compound 1106], the “Ent. B Max Activity” value on CFTR [1] (Table 7) is recorded as “++ (++ is 30-60%)”. Further, the EC50 on CFTR [1] (setting [3]) lay within 1 to 3 µM. For the same molecule, on CFTR [2] (Table 7), the “Ent. A Max Activity” value is on record as “+++ (+++ is >60%)” and the EC50 was 1 to 3 µM.
On to `COCCN1C(=O)c2cccc(c2)S(=O)(=O)Nc2nc(cc(-c3c(C)cccc3C)n2)OC[C@H]1CC(C)C` [Compound 363], for which the “Ent. B Max Activity” value on CFTR [1] (Table 6) was “+++ (+++ is >60%)”. In addition, the EC50 is < 1 µM on CFTR [1] (Table 6, human enteroid cells, 18-24 hours, acute 10 μM forskolin and 300 nM ivacaftor); < 1 µM on CFTR [2] (Table 6). In addition, the “Ent. A Max Activity” value on CFTR [2] (Table 6) is reported as “+++ (+++ is >60%)”.
`COc1cnc(CN2C(=O)c3cccc(c3)S(=O)(=O)Nc3nc(cc(-c4c(C)cccc4C)n3)OC[C@H]2CC(C)(C)C)cn1` [Compound 1099]: the “Ent. B Max Activity” value at CFTR [1] (Table 8) is “+++ (+++ is >60%)”. The EC50 on CFTR [1] (setting [4]) is < 1 µM.
On the same counts, the results for `Cc1cccc(C)c1-c1cc2nc(n1)NS(=O)(=O)c1cccc(c1)C(=O)N(Cc1cc(C(C)(C)O)n(C)n1)[C@H](CC(C)(C)C)CO2` [Compound 849] are “+++ (+++ is >60%)” and < 1 µM.
On the same counts, the results for `Cc1cccc(C)c1-c1cc2nc(n1)NS(=O)(=O)c1cccc(c1)C(=O)N(CC(C)(C)O)[C@H](CC(C)C)CO2` [Compound 43, (11R)-6-(2,6-Dimethylphenyl)-12-(2-hydroxy-2-methyl-propyl)-11-isobutyl-2,2-dioxo-9-oxa-2λ^6-thia-3,5,12,19-tetrazatricyclo[12.3.1.14,8]nonadeca 1(18),4(19),5,7,14,16-hexaen-13-one] are “+++ (+++ is >60%)” and < 1 µM.
`Cc1cccc(C)c1-c1cc2nc(n1)NS(=O)(=O)c1cccc(c1)C(=O)N(Cc1cccc(N)n1)[C@H](CC(C)(C)C)CO2` [Compound 125, (11R)-12-[(6-Amino-2-pyridyl)methyl]-6-(2,6-dimethylphenyl)-11-(2,2-dimethylpropyl)-2,2-dioxo-9-oxa-2λ^6-thia-3,5,12,19-tetrazatricyclo[12.3.1.14,8]nonadeca-1(18),4(19),5,7,14,16-hexaen-13-one]: on CFTR [1] (Table 9), the “Ent. B Max Activity (%)” value is given as “+++ (+++ is >600%)” and the EC50 is < 1 µM.
As to `Cc1cccc(C)c1-c1cc2nc(n1)NS(=O)(=O)c1cccc(c1)C(=O)N(CCc1ccc(C(N)=O)cc1)[C@H](CC(C)(C)C)CO2` [Compound 396], the “Ent. B Max Activity” value on CFTR [1] (Table 8) was “++ (++ is 30-60%)”. Moreover, the EC50 on CFTR [1] (setting [4]) was < 1 µM.
On the same counts, the results for `Cc1cccc(C)c1-c1cc2nc(n1)NS(=O)(=O)c1cccc(c1)C(=O)N(C)CC(c1ccc(CC3(C(F)(F)F)CC3)cn1)O2` (single isomer, unassigned) [Compound 104, 6-(2,6-dimethylphenyl)-12-methyl-10-(5-{[1-(trifluoromethyl)cyclopropyl]methyl}pyridin-2-yl)-9-oxa-2λ^6-thia-3,5,12,19-tetraazatricyclo[12.3.1.14,8]nonadeca-1(17),4(19),5,7,14(18),15-hexaene-2,2,13-trione] are “+++ (+++ is >60%)” and < 1 µM.
As to `Cc1cccc(C)c1-c1cc2nc(n1)NS(=O)(=O)c1cccc(c1)C(=O)N(CCOC(F)(F)F)[C@H](CC(C)C)CO2` [Compound 1103], the “Ent. B Max Activity” value on CFTR [1] (Table 7) is “+++ (+++ is >60%)”. On CFTR [1] (setting [3]), the EC50 is < 1 µM.
For the molecule `Cc1ncc(CN2C(=O)c3cc(nn3C)S(=O)(=O)Nc3nc(cc(-c4c(C)cccc4C)n3)OC[C@H]2CC(C)(C)C)cn1` [Compound 925], the “Ent. B Max Activity” value at CFTR [1] (Table 8) is “++ (++ is 30-60%)”. Further, the half-maximal effective concentration (EC50) on CFTR [1] (setting [4]) is < 1 µM.
On to `Cc1cccc(C)c1-c1cc2nc(n1)NS(=O)(=O)c1cccc(n1)C(=O)N(CCCCC(C)(C)O)[C@H](CC(C)(C)C)CO2` [Compound 76, (11R)-6-(2,6-Dimethylphenyl)-11-(2,2-dimethylpropyl)-12-(5-hydroxy-5-methylhexyl)-9-oxa-2λ^6-thia-3,5,12,18,19-pentaazatricyclo[12.3.1.14,8]nonadeca-1(18),4(19),5,7,14,16-hexaene-2,2,13-trione], for which the “Ent. B Max Activity” value at CFTR [1] (Table 8) was “+++ (+++ is >60%)”. In addition, the EC50 at CFTR [1] (setting [4]) was < 1 µM.
For `Cc1cccc(C)c1-c1cc2nc(n1)NS(=O)(=O)c1cccc(c1)C(=O)N(CC(C)(C)C)[C@H](CC(C)(C)C)CO2` [Compound 399], on CFTR [1] (Table 9), the “Ent. B Max Activity (%)” value is given as “+++ (+++ is >600%)” and the EC50 was < 1 µM.
Take `Cc1cccc(C)c1-c1cc2nc(n1)NS(=O)(=O)c1cccc(c1)C(=O)N(Cc1ccc(NC(=O)OC(C)C)cc1)[C@H](CC(C)(C)C)CO2` [Compound 508]: the “Ent. B Max Activity” value at CFTR [1] (Table 8) is recorded as “+++ (+++ is >60%)”. Besides, the EC50 on CFTR [1] (setting [4]) was < 1 µM.
For `Cc1cccc(C)c1-c1cc2nc(n1)NS(=O)(=O)c1cccc(c1)C(=O)N(Cc1cnc(C(C)(C)C)nc1)[C@H](CC(C)(C)C)CO2` [Compound 788], on CFTR [1] (Table 9), the “Ent. B Max Activity (%)” value was “+++ (+++ is >600%)” and the EC50 is < 1 µM.
`Cc1cccc(C)c1-c1cc2nc(n1)NS(=O)(=O)c1cccc(c1)C(=O)N(Cc1ccc(CC(=O)N(C)C)cc1)[C@H](CC(C)(C)C)CO2` [Compound 845]: on CFTR [1] (Table 9), the “Ent. B Max Activity (%)” value is reported as “+++ (+++ is >600%)” and the EC50 is < 1 µM.
`Cc1cccc(C)c1-c1cc2nc(n1)NS(=O)(=O)c1cccc(c1)C(=O)N(C[C@H]1C[C@@H](C(C)(C)O)C1)[C@H](CC(C)(C)C)CO2` [Compound 335]: the “Ent. B Max Activity” value on CFTR [1] (Table 8) is “+++ (+++ is >60%)”. For the same molecule, at CFTR [1] (setting [4]), the EC50 is < 1 µM.
For the molecule `Cc1cccc(C)c1-c1cc2nc(n1)NS(=O)(=O)c1cccc(c1)C(=O)N(CCC(C)(C)C#N)[C@H](CC(C)C)CO2` [Compound 1105], the “Ent. B Max Activity” value on CFTR [1] (Table 7) is “+++ (+++ is >60%)”. Moreover, the EC50 on CFTR [1] (setting [3]) was < 1 µM.
On to `Cc1cccc(C)c1-c1cc2nc(n1)NS(=O)(=O)c1cccc(c1)C(=O)N(Cc1ccccn1)[C@H](CC(C)(C)C)CO2` [Compound 124, (11R)-6-(2,6-Dimethylphenyl)-11-(2,2-dimethylpropyl)-12-[(pyridin-2-yl)methyl]-9-oxa-2λ^6-thia-3,5,12,19-tetraazatricyclo[12.3.1.14,8]nonadeca-1(17),4,6,8(19),14(18),15-hexaene-2,2,13-trione], for which, at CFTR [1] (Table 8), the “Ent. B Max Activity” value is “+++ (+++ is >60%)”. For the same molecule, the EC50 on CFTR [1] (setting [4]) is < 1 µM.
For `Cc1cccc(C)c1-c1cc2nc(n1)NS(=O)(=O)c1cccc(c1)C(=O)N(Cc1ccc(CC(C)(C)O)cc1)[C@H](CC(C)(C)C)CO2` [Compound 848] the same measures were “+++ (+++ is >60%)” and < 1 µM.
On the same counts, the results for `Cc1cccc(C)c1-c1cc2nc(n1)NS(=O)(=O)c1cccc(c1)C(=O)N(Cc1ccc(C(C)(C)O)cc1)[C@H](CC(C)(C)O)CO2` [Compound 663] are “+++ (+++ is >60%)” and < 1 µM.
As for `Cc1cccc(C)c1-c1cc2nc(n1)NS(=O)(=O)c1cccc(c1)C(=O)N(Cc1ccc(N)nc1)[C@H](CC(C)(C)C)CO2` [Compound 387], on CFTR [1] (Table 9), the “Ent. B Max Activity (%)” value is on record as “+++ (+++ is >600%)” and the EC50 is < 1 µM.
On the same counts, the results for `Cc1cccc(C)c1-c1cc2nc(n1)NSc1cccc(c1)C(=O)N(Cc1ccc(C(C)(C)O)nc1)[C@H](CC(C)(C)C(F)(F)F)CO2` [Compound 320] are “+++ (+++ is >600%)” and < 1 µM.
On to `Cc1cccc(C)c1-c1cc2nc(n1)NS(=O)(=O)c1cccc(c1)CN(CCCCO)[C@H](CC(C)C)CO2` [Compound 46, 4-[(11R)-6-(2,6-Dimethylphenyl)-11-isobutyl-2,2-dioxo-9-oxa-2λ^6-thia-3,5,12,19-tetrazatricyclo[12.3.1.14,8]nonadeca-1(18),4(19),5,7,14,16-hexaen-12-yl]butan-1-ol], for which the “Ent. B Max Activity” value at CFTR [1] (Table 8) is reported as “+++ (+++ is >60%)”. Also, at CFTR [1] (setting [4]), the EC50 is < 1 µM.
On the same counts, the results for `Cc1cccc(C)c1-c1cc2nc(n1)NS(=O)(=O)c1cccc(n1)C(=O)N(Cc1cccnn1)[C@H](CC(C)(C)C)CO2` [Compound 1090] are “+++ (+++ is >60%)” and < 1 µM.
For `Cc1cccc(C)c1-c1cc2nc(n1)NS(=O)(=O)c1cccc(c1)C(=O)N(Cc1ccc(C(C)(C)O)cc1)[C@H](CC(C)(C)C)CO2` [Compound 1094], at CFTR [1] (Table 8), the “Ent. B Max Activity” value is “+++ (+++ is >60%)”. The EC50 on CFTR [1] (setting [4]) was < 1 µM.
On the same counts, the results for `Cc1cccc(C)c1-c1cc2nc(n1)NS(=O)(=O)c1cccc(c1)C(=O)N(Cc1ccc(C(C)(C)O)cc1)[C@H](CCC(C)(C)O)CO2` [Compound 661] are “++ (++ is 30-60%)” and 1 to 3 µM.
For the molecule `Cc1cccc(C)c1-c1cc2nc(n1)NS(=O)(=O)c1cccc(c1)C(=O)N([C@H](C)c1ccccc1)[C@H](CC(C)(C)C)CO2` [Compound 1079], the “Ent. B Max Activity” value on CFTR [1] (Table 8) is given as “+++ (+++ is >60%)”. Moreover, the EC50 on CFTR [1] (setting [4]) is < 1 µM.
With `Cc1cccc(C)c1-c1cc2nc(n1)NS(=O)(=O)c1cccc(c1)C(=O)N(Cc1ccn3nccc3c1)[C@H](CC(C)(C)C)CO2` [Compound 791], at CFTR [1] (Table 9), the “Ent. B Max Activity (%)” value was “+++ (+++ is >600%)” and the EC50 was < 1 µM.

(Values after US20240150377A1, “MODULATORS OF CYSTIC FIBROSIS TRANSMEMBRANE CONDUCTANCE REGULATOR” (VERTEX PHARMACEUTICALS INCORPORATED, priority 2020, published 2024).)
